Test results reported in ChEMBL document CHEMBL1146883, “5'-O-tritylinosine and analogues as allosteric inhibitors of human thymidine phosphorylase” (J Med Chem, 2006).

target: T1, Thymidine phosphorylase (Homo sapiens, UniProt P19971)
T1 sequence (P19971 whole entry): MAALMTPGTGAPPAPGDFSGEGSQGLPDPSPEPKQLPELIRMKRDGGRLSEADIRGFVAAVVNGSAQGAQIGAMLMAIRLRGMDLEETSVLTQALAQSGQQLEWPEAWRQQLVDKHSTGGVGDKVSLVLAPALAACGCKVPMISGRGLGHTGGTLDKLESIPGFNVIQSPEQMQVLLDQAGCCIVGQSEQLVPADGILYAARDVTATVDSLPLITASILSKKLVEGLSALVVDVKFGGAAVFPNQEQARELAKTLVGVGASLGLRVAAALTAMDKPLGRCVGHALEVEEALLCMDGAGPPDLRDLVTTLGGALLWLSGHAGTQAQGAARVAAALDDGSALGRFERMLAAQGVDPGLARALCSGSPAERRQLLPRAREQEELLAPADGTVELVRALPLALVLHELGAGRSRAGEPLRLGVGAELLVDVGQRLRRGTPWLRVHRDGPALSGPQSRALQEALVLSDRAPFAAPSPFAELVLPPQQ
Description: Inhibition of human TPase in presence of 100 uM thymidine

Row | SMILES | IC50 [µM]
1 | COCCOCNC(=O)c1ncn([C@@H]2O[C@H](COC(c3ccccc3)(c3ccccc3)c3ccccc3)[C@@H](O)[C@H]2O)c1N | > 75
2 | COCCOCn1cnc2c(ncn2[C@@H]2O[C@H](COC(c3ccccc3)(c3ccccc3)c3ccccc3)[C@@H](O)[C@H]2O)c1=O | > 100
3 | O=c1c2ncn([C@@H]3O[C@H](COCc4ccccc4)[C@@H](O)[C@H]3O)c2ncn1Cc1ccccc1 | > 200
4 | NC(=O)c1ncn([C@@H]2O[C@H](COC(c3ccccc3)(c3ccccc3)c3ccccc3)[C@@H](O)[C@H]2O)c1N | ≥ 40
5 | OC[C@@H](COC(c1ccccc1)(c1ccccc1)c1ccccc1)O[C@H](CO)n1cnc2c(O)ncnc21 | > 200

Next, values leading:

Row | IC50 [µM] | SMILES
6 | > 20 | COCCOCn1cnc2c(ncn2[C@@H]2O[C@H](COC(c3ccccc3)(c3ccccc3)c3ccccc3)[C@@H](OC(C)=O)[C@H]2OC(C)=O)c1=O
7 | 137 | CNC(=O)c1ncn([C@@H]2O[C@H](COC(c3ccccc3)(c3ccccc3)c3ccccc3)[C@@H](O)[C@H]2O)c1N
